Structures are written as SMILES. ≈ marks a conversion by molar mass, not a printed value. Where only a bound is given, the exact number is not on record here.

This series can be described thus: Oil solubility test in benzyl benzoate (HPLC). In kind it is physicochemical. To be noted: organic solvent or mixture, thermodynamic from solid, 25° C., shaken 2 h. The procedure:
The solubility test was performed by quantitative analysis using an external standard method of high-performance liquid chromatography.
Reference sample solution: 10 mg of reference sample was weighed, placed in a 20 mL volumetric flask, diluted to the scale with 80% acetonitrile, and shaken uniformly.
Test sample solution: an appropriate amount of sample was dissolved in benzyl benzoate to obtain a saturated solution. The mixture was placed in a shaker and shaken at 25° C. and 800 rpm for 2 h. The sample solution was filtered, and 100 μL of filtrate was added to a 10 mL volumetric flask, diluted to the scale with 80% acetonitrile, and shaken uniformly.
On to `CC(C)OC(=O)N1C(=O)CCc2ccc(CCN3CCN(c4cc(F)cc5sccc45)CC3)cc21` [Compound 4], for which the solubility at 2 h came to 25.8 mg/mL (≈ 52 mM).

On to `CCCCCCCCCCCCCCCC(=O)OCn1c(=O)ccc2ccc(CCN3CCN(c4cc(F)cc5sccc45)CC3)cc21` [Compound 9, (7-(2-(4-(6-Fluorobenzo[b]thiophen-4-yl)piperazin-1-yl)ethyl)-2-oxoquinolin-1(2H)-yl)methyl palmitate], for which the solubility at 2 h was > 200 mg/mL.

Regarding `CCCCCCCCCC(=O)OCn1c(=O)ccc2ccc(CCN3CCN(c4cc(F)cc5sccc45)CC3)cc21` [Compound 10, (7-(2-(4-(6-Fluorobenzo[b]thiophen-4-yl)piperazin-1-yl)ethyl)-2-oxoquinolin-1(2H)-yl)methyl decanoate], the solubility at 2 h is > 200 mg/mL.

As for `CCCCCCCCCCCC(=O)OC(C)N1C(=O)CCc2ccc(CCN3CCN(c4cc(F)cc5sccc45)CC3)cc21` (stereo not shown) [Compound 13, 1-(7-(2-(4-(6-Fluorobenzo[b]thiophen-4-yl)piperazin-1-yl)ethyl)-2-oxo-3,4-dihydroquinolin-1(2H)-yl)ethyl dodecanoate], the solubility at 2 h is > 200 mg/mL.

On to `CCCCCCCCCCCOC(=O)OCN1C(=O)CCc2ccc(CCN3CCN(c4cc(F)cc5sccc45)CC3)cc21` [Compound 14, (7-(2-(4-(6-Fluorobenzo[b]thiophen-4-yl)piperazin-1-yl)ethyl)-2-oxo-3,4-dihydroquinolin-1(2H)-yl) methyl undecyl carbonate], for which the solubility at 2 h is > 200 mg/mL.

In the case of `CCCCCCCCCCCCCCCC(=O)OC(C)N1C(=O)CCc2ccc(CCN3CCN(c4cc(F)cc5sccc45)CC3)cc21` (stereo not shown) [Compound 15, 1-(7-(2-(4-(6-Fluorobenzo[b]thiophen-4-yl)piperazin-1-yl)ethyl)-2-oxo-3,4-dihydroquinolin-1(2H)-yl) ethyl palmitate], the solubility at 2 h was > 200 mg/mL.

With `CCCCCCCOC(=O)OCN1C(=O)CCc2ccc(CCN3CCN(c4cc(F)cc5sccc45)CC3)cc21` [Compound 25, (7-(2-(4-(6-Fluorobenzo[b]thiophen-4-yl)piperazin-1-yl)ethyl)-2-oxo-3,4-dihydroquinolin-1(2H)-yl) methyl heptyl carbonate], the solubility at 2 h was > 200 mg/mL.

For the molecule `CCCCCCCCOC(=O)OCN1C(=O)CCc2ccc(CCN3CCN(c4cc(F)cc5sccc45)CC3)cc21` [Compound 26, (7-(2-(4-(6-Fluorobenzo[b]thiophen-4-yl)piperazin-1-yl)ethyl)-2-oxo-3,4-dihydroquinolin-1(2H)-yl) methyl octyl carbonate], the solubility at 2 h was > 200 mg/mL.

For `CCCCCCCCCOC(=O)OCN1C(=O)CCc2ccc(CCN3CCN(c4cc(F)cc5sccc45)CC3)cc21` [Compound 27, (7-(2-(4-(6-Fluorobenzo[b]thiophen-4-yl)piperazin-1-yl)ethyl)-2-oxo-3,4-dihydroquinolin-1(2H)-yl) methyl nonyl carbonate], the solubility at 2 h is > 200 mg/mL.

As to `CCCCCCCCCCOC(=O)OCN1C(=O)CCc2ccc(CCN3CCN(c4cc(F)cc5sccc45)CC3)cc21` [Compound 28, Decyl ((7-(2-(4-(6-fluorobenzo[b]thiophen-4-yl)piperazin-1-yl)ethyl)-2-oxo-3,4-dihydroquinolin-1(2H)-yl)methyl) carbonate], the solubility at 2 h is > 200 mg/mL.

Regarding `CCCCCCCCCCCCOC(=O)OCN1C(=O)CCc2ccc(CCN3CCN(c4cc(F)cc5sccc45)CC3)cc21` [Compound 29, Dodecyl ((7-(2-(4-(6-fluorobenzo[b]thiophen-4-yl)piperazin-1-yl)ethyl)-2-oxo-3,4-dihydroquinolin-1(2H)-yl)methyl) carbonate], the solubility at 2 h is > 200 mg/mL.

Take `CCCCCCCCCCCCCCOC(=O)OCN1C(=O)CCc2ccc(CCN3CCN(c4cc(F)cc5sccc45)CC3)cc21` [Compound 30, (7-(2-(4-(6-Fluorobenzo[b]thiophen-4-yl)piperazin-1-yl)ethyl)-2-oxo-3,4-dihydroquinolin-1(2H)-yl) methyl tetradecyl carbonate]: the solubility at 2 h was > 200 mg/mL.

For `CCCCCCCCCCCCCCCCOC(=O)OCN1C(=O)CCc2ccc(CCN3CCN(c4cc(F)cc5sccc45)CC3)cc21` [Compound 31, (7-(2-(4-(6-Fluorobenzo[b]thiophen-4-yl)piperazin-1-yl)ethyl)-2-oxo-3,4-dihydroquinolin-1(2H)-yl)methyl hexadecyl carbonate], the solubility at 2 h is > 200 mg/mL.

Take `CCCCCCCCCCCC(=O)OCn1c(=O)cc(F)c2ccc(CCN3CCN(c4cc(F)cc5sccc45)CC3)cc21` [Compound 38, (4-Fluoro-7-(2-(4-(6-fluorobenzo[b]thiophen-4-yl)piperazin-1-yl)ethyl)-2-oxoquinolin-1(2H)-yl)methyl dodecanoate]: the solubility at 2 h is > 200 mg/mL.

Turning to `CCCCCCCCCCCC(=O)OCN1C(=O)CC(C)(C)c2ccc(CCN3CCN(c4cc(F)cc5sccc45)CC3)cc21` [Compound 43, (7-(2-(4-(6-Fluorobenzo[b]thiophen-4-yl)piperazin-1-yl)ethyl)-4,4-dimethyl-2-oxo-3,4-dihydroquinolin-1(2H)-yl)methyl dodecanoate], the solubility at 2 h is > 200 mg/mL.

As to `[2H]c1cc(=O)n(COC(=O)CCCCCCCCCCC)c2cc(CCN3CCN(c4cc(F)cc5sccc45)CC3)ccc12` [Compound 51, (7-(2-(4-(6-Fluorobenzo[b]thiophen-4-yl)piperazin-1-yl)ethyl)-2-oxoquinolin-1(2H)-yl-4-d)methyl dodecanoate], the solubility at 2 h was > 200 mg/mL.

For the molecule `CCCCCCCC(=O)OCN1C(=O)CCc2ccc(CCN3CCN(c4cc(F)cc5sccc45)CC3)cc21` [Compound 61, (7-(2-(4-(6-Fluorobenzo[b]thiophen-4-yl)piperazin-1-yl)ethyl)-2-oxo-3,4-dihydroquinolin-1(2H)-yl) methyl octanoate], the solubility at 2 h is > 200 mg/mL.

With `CCCCCCCCC(=O)OCN1C(=O)CCc2ccc(CCN3CCN(c4cc(F)cc5sccc45)CC3)cc21` [Compound 62, (7-(2-(4-(6-Fluorobenzo[b]thiophen-4-yl)piperazin-1-yl)ethyl)-2-oxo-3,4-dihydroquinolin-1(2H)-yl) methyl nonanoate], the solubility at 2 h is > 200 mg/mL.

Regarding `CCCCCCCCCCC(=O)OCN1C(=O)CCc2ccc(CCN3CCN(c4cc(F)cc5sccc45)CC3)cc21` [Compound 63, (7-(2-(4-(6-Fluorobenzo[b]thiophen-4-yl)piperazin-1-yl)ethyl)-2-oxo-3,4-dihydroquinolin-1(2H)-yl) methyl undecanoate], the solubility at 2 h is > 200 mg/mL.

Regarding `CCCCCCCCCCCCC(=O)OCN1C(=O)CCc2ccc(CCN3CCN(c4cc(F)cc5sccc45)CC3)cc21` [Compound 64, (7-(2-(4-(6-Fluorobenzo[b]thiophen-4-yl)piperazin-1-yl)ethyl)-2-oxo-3,4-dihydroquinolin-1(2H)-yl) methyl tridecanoate], the solubility at 2 h is > 200 mg/mL.

As to `CCCCCCCCCCCCCC(=O)OCN1C(=O)CCc2ccc(CCN3CCN(c4cc(F)cc5sccc45)CC3)cc21` [Compound 65, (7-(2-(4-(6-Fluorobenzo[b]thiophen-4-yl)piperazin-1-yl)ethyl)-2-oxo-3,4-dihydroquinolin-1(2H)-yl) methyl tetradecanoate], the solubility at 2 h is > 200 mg/mL.

Turning to `CCCCCCCCCCCCCCC(=O)OCN1C(=O)CCc2ccc(CCN3CCN(c4cc(F)cc5sccc45)CC3)cc21` [Compound 66, (7-(2-(4-(6-Fluorobenzo[b]thiophen-4-yl)piperazin-1-yl)ethyl)-2-oxo-3,4-dihydroquinolin-1(2H)-yl) methyl pentadecanoate], the solubility at 2 h is > 200 mg/mL.

What is called solubility is how much of the substance goes into solution per volume.

These data come from patent US20260250272A1, “N-SUBSTITUTED QUINOLINONE COMPOUND, PREPARATION METHOD THEREFOR AND USE THEREOF” (VIGONVITA LIFE SCIENCES CO., LTD., priority 2022, published 2026).
